Laboratory results from ChEMBL document CHEMBL3885881, “DrugMatrix”.

Species: Rattus norvegicus
Experiment: DrugMatrix - Regimen: Daily Repeat
Type: toxicity, organism-based, Sprague-Dawley
Parameters: regimen Daily Repeat, gender Male, age 6-8 weeks
Conditions: in vivo, iv, vehicle 100 % SALINE; for URIC ACID / ALANINE AMINOTRANSFERASE / ALBUMIN / ALKALINE PHOSPHATASE / ASPARTATE AMINOTRANSFERASE / BLOOD UREA NITROGEN / CARBON DIOXIDE / CHLORIDE / CHOLESTEROL / CREATINE PHOSPHOKINASE / CREATININE / GLUCOSE / LACTATE DEHYDROGENASE / LIPASE / PHOSPHORUS / POTASSIUM / SODIUM / TOTAL BILIRUBIN / TOTAL PROTEIN: tissue Plasma; for ABSOLUTE BASOPHIL / ABSOLUTE EOSINOPHIL / ABSOLUTE LYMPHOCYTE / ABSOLUTE MONOCYTE / ABSOLUTE SEGMENTED NEUTROPHIL / BASOPHIL / EOSINOPHIL / ERYTHROCYTE COUNT / HEMATOCRIT / HEMOGLOBIN / LEUKOCYTE COUNT / LYMPHOCYTE / MEAN CORPUSCULAR HEMOGLOBIN / MEAN CORPUSCULAR HEMOGLOBIN CONCENTRATION / MEAN CORPUSCULAR VOLUME / MONOCYTE / NEUTROPHIL / NUCLEATED RED BLOOD CELLS / PLATELET COUNT: tissue Blood
[1] = 2 mg/kg, 120 h, dose level Low, time 5 day
[2] = 44 mg/kg, 72 h, dose level High, time 3 day
[3] = 44 mg/kg, 120 h, dose level High, time 5 day

Cc1ccc(N(CC2=NCCN2)c2cccc(O)c2)cc1 [PHENTOLAMINE]
URIC ACID (2 mg/kg, 72 h, dose level Low, time 3 day): 1.4 mg/dL
ABSOLUTE BASOPHIL [1]: 0 CELLS/uL
ABSOLUTE EOSINOPHIL [1]: 0 CELLS/uL
ABSOLUTE LYMPHOCYTE [1]: 13096 CELLS/uL
ABSOLUTE MONOCYTE [1]: 288 CELLS/uL
ABSOLUTE SEGMENTED NEUTROPHIL [1]: 1016 CELLS/uL
BASOPHIL [1]: 0%
EOSINOPHIL [1]: 0%
ERYTHROCYTE COUNT [1]: 6.03 x10E6/uL
HEMATOCRIT [1]: 38.17%
HEMOGLOBIN [1]: 14.2 G/DL
LEUKOCYTE COUNT [1]: 14.4 x10E3/uL
LYMPHOCYTE [1]: 91%
MEAN CORPUSCULAR HEMOGLOBIN [1]: 23.53 pg
MEAN CORPUSCULAR HEMOGLOBIN CONCENTRATION [1]: 37.2 G/DL
MEAN CORPUSCULAR VOLUME [1]: 63.3 fL
MONOCYTE [1]: 2%
NEUTROPHIL [1]: 7%
NUCLEATED RED BLOOD CELLS [1]: 0.67 /100WBC
PLATELET COUNT [1]: 1406 x10E3/uL
ALANINE AMINOTRANSFERASE [1]: 51.67 u/L
ALBUMIN [1]: 4.47 G/DL
ALKALINE PHOSPHATASE [1]: 440 u/L
ASPARTATE AMINOTRANSFERASE [1]: 80 u/L
BLOOD UREA NITROGEN [1]: 16.67 mg/dL
CARBON DIOXIDE [1]: 20.33 mmol/L
CHLORIDE [1]: 102.67 MEQ/L
CHOLESTEROL [1]: 64.33 mg/dL
CREATINE PHOSPHOKINASE [1]: 255.33 u/L
CREATININE [1]: 0.17 mg/dL
GLUCOSE [1]: 170.33 mg/dL
LACTATE DEHYDROGENASE [1]: 112.33 u/L
LIPASE [1]: 10 u/L
PHOSPHORUS [1]: 12.37 mg/dL
POTASSIUM [1]: 6.89 MEQ/L
SODIUM [1]: 145.97 MEQ/L
TOTAL BILIRUBIN [1]: 0.23 mg/dL
URIC ACID [1]: 1.8 mg/dL
ABSOLUTE BASOPHIL [2]: 0 CELLS/uL
ABSOLUTE EOSINOPHIL [2]: 0 CELLS/uL
ABSOLUTE LYMPHOCYTE [2]: 13788 CELLS/uL
ABSOLUTE MONOCYTE [2]: 136.33 CELLS/uL
ABSOLUTE SEGMENTED NEUTROPHIL [2]: 1109 CELLS/uL
BASOPHIL [2]: 0%
EOSINOPHIL [2]: 0%
ERYTHROCYTE COUNT [2]: 5.51 x10E6/uL
HEMATOCRIT [2]: 35.77%
HEMOGLOBIN [2]: 13.13 G/DL
LEUKOCYTE COUNT [2]: 15.03 x10E3/uL
LYMPHOCYTE [2]: 91.33%
MEAN CORPUSCULAR HEMOGLOBIN [2]: 23.9 pg
MEAN CORPUSCULAR HEMOGLOBIN CONCENTRATION [2]: 36.73 G/DL
MEAN CORPUSCULAR VOLUME [2]: 65 fL
MONOCYTE [2]: 1%
NEUTROPHIL [2]: 7.67%
NUCLEATED RED BLOOD CELLS [2]: 0.67 /100WBC
PLATELET COUNT [2]: 1392 x10E3/uL
ALANINE AMINOTRANSFERASE [2]: 54.67 u/L
ALBUMIN [2]: 4.3 G/DL
ALKALINE PHOSPHATASE [2]: 373 u/L
ASPARTATE AMINOTRANSFERASE [2]: 66.67 u/L
BLOOD UREA NITROGEN [2]: 17.33 mg/dL
CARBON DIOXIDE [2]: 20.33 mmol/L
CHLORIDE [2]: 100.67 MEQ/L
CHOLESTEROL [2]: 81.33 mg/dL
CREATINE PHOSPHOKINASE [2]: 188.33 u/L
CREATININE [2]: 0.22 mg/dL
GLUCOSE [2]: 163.67 mg/dL
LACTATE DEHYDROGENASE [2]: 78 u/L
LIPASE [2]: 10.67 u/L
PHOSPHORUS [2]: 10.77 mg/dL
POTASSIUM [2]: 6.6 MEQ/L
SODIUM [2]: 143.67 MEQ/L
TOTAL BILIRUBIN [2]: 0.23 mg/dL
TOTAL PROTEIN [2]: 6.03 G/DL
URIC ACID [2]: 1.53 mg/dL
ABSOLUTE BASOPHIL [3]: 0 CELLS/uL
ABSOLUTE EOSINOPHIL [3]: 0 CELLS/uL
ABSOLUTE LYMPHOCYTE [3]: 13982.67 CELLS/uL
ABSOLUTE MONOCYTE [3]: 349.33 CELLS/uL
ABSOLUTE SEGMENTED NEUTROPHIL [3]: 3068 CELLS/uL
BASOPHIL [3]: 0%
EOSINOPHIL [3]: 0%
ERYTHROCYTE COUNT [3]: 5.76 x10E6/uL
HEMATOCRIT [3]: 36.83%
HEMOGLOBIN [3]: 13.87 G/DL
LEUKOCYTE COUNT [3]: 17.4 x10E3/uL
LYMPHOCYTE [3]: 81.33%
MEAN CORPUSCULAR HEMOGLOBIN [3]: 24.1 pg
MEAN CORPUSCULAR HEMOGLOBIN CONCENTRATION [3]: 37.67 G/DL
MEAN CORPUSCULAR VOLUME [3]: 64.07 fL
MONOCYTE [3]: 2%
NEUTROPHIL [3]: 16.67%
NUCLEATED RED BLOOD CELLS [3]: 0 /100WBC
PLATELET COUNT [3]: 1344.67 x10E3/uL
ALANINE AMINOTRANSFERASE [3]: 54.67 u/L
ALBUMIN [3]: 4.33 G/DL
ALKALINE PHOSPHATASE [3]: 353 u/L
ASPARTATE AMINOTRANSFERASE [3]: 75.67 u/L
BLOOD UREA NITROGEN [3]: 16.33 mg/dL
CARBON DIOXIDE [3]: 29.33 mmol/L
CHLORIDE [3]: 103.33 MEQ/L
CHOLESTEROL [3]: 81 mg/dL
CREATINE PHOSPHOKINASE [3]: 410.67 u/L
CREATININE [3]: 0.19 mg/dL
GLUCOSE [3]: 200.33 mg/dL
LACTATE DEHYDROGENASE [3]: 220.67 u/L
LIPASE [3]: 11 u/L
PHOSPHORUS [3]: 11.43 mg/dL
POTASSIUM [3]: 6.26 MEQ/L
SODIUM [3]: 144.07 MEQ/L
TOTAL BILIRUBIN [3]: 0.17 mg/dL
TOTAL PROTEIN [3]: 6.43 G/DL
URIC ACID [3]: 2.13 mg/dL
